Source: patent publication US10221162B2, “Triazole agonists of the APJ receptor” (priority 2015, dated 2019)
Like-named read-outs stand apart in the source and are kept apart here.

Key:
human APJ receptor = human APJ receptor (Homo sapiens (Human), UniProt P35414); assay: [35S]GTPγS binding assay (hAPJ SPA); type: biochemical
Procedure: The human APJ receptor was cloned by polymerase chain reaction and the gene encoding the receptor was subcloned in pFLAG-CMV™-3 expression vector (Sigma, Saint Louis, Mo. USA) in-house at Amgen. A GTPγS binding assay was performed on membranes prepared from CHO cells stably expressing human APJ receptor. The optimum experimental conditions for the concentrations of GDP, MgCl2, and NaCl in the assay buffer were initially determined. The assay was performed in assay buffer [20 mM HEPES, pH 7.5, 5 mM MgCl2, and 0.1% (w/v) BSA with 200 mM NaCl, 3 μM GDP] and membranes expressing human APJ receptor/well along with WGA PS beads. The reaction was initiated by addition of 0.2 nM [^35S]GTPγS (Perkin Elmer Life and Analytical Sciences, Waltham USA) in the absence or presence of various ligands and incubated at RT for 90 min. […] All the results presented are means of several independent experiments and analyzed by non-linear regression methods using commercially available program Prism (GraphPad, San Diego, Calif.) to obtain EC50 detailed in Table 58.

heart failure rat model = assay: In vivo cardiac contractility in heart failure (MI) rat model; conditions: heart failure rats, acute administration for 30 min; for cardiac contractility as measured by dP/dt: result in words
Procedure: Male Lewis rats (Charles River, USA) at 2-3 months of age were used for the study. […] APJ agonists were administered dose dependently acutely for a period of 30 min.
The interaction between […] (ACE2) and Apelin biology is complicated. To investigate the interaction between the Apelin-APJ and ACE signalling pathways, we examined the improvement in cardiac function with APJ small molecule agonists in the presence of ACE inhibitor captopril in heart failure rats in vivo.

[1] = system: isolated perfused rat hearts; assay: Ex vivo isolated perfused rat heart (Langendorff) assay; conditions: percent change; for Isolated Heart Assay dP/dtmax (%): LV contractility; for Isolated Heart Assay dP/dtmin (%): LV relaxation
[2] = system: naive Sprague Dawley rat hearts; assay: Langendorff isolated perfused rat heart (ex vivo contractility and relaxation); conditions: Langendorff apparatus, as a function of concentration
[3] = membranes from CHO cells stably expressing human APJ receptor, [35S]GTPγS, read-out: Activity hAPJ SPA EC50 IP

Sequence of human APJ receptor (P35414 whole entry): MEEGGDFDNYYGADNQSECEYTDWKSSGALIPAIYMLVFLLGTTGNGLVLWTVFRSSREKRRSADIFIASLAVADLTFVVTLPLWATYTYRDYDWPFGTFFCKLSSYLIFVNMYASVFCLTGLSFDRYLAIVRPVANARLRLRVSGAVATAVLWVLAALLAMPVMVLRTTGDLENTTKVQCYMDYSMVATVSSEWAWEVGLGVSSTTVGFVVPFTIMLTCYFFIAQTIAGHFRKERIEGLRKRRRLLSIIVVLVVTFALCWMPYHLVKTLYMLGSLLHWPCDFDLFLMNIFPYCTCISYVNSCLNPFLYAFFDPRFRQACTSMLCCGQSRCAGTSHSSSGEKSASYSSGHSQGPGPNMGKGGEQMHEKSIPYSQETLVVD

Compound: COc1cccc(OC)c1-n1c(NS(=O)(=O)[C@@H](C)[C@H](O)c2ccc(C#N)cc2)nnc1-c1cncc(C)c1.COc1cccc(OC)c1-n1c(NS(=O)(=O)[C@H](C)[C@@H](O)c2ccc(C#N)cc2)nnc1-c1cncc(C)c1 (mixture of isomers) [Example 247.0, (1R,2S)-1-(4-cyanophenyl)-N-(4-(2,6-dimethoxyphenyl)-5-(5-methyl-3-pyridinyl)-4H-1,2,4-triazol-3-yl)-1-hydroxy-2-propanesulfonamide and (1S,2R)-1-(4-cyanophenyl)-N-(4-(2,6-dimethoxyphenyl)-5-(5-methyl-3-pyridinyl)-4H-1,2,4-triazol-3-yl)-1-hydroxy-2-propanesulfonamide]
- EC50 (human APJ receptor): 3.8 nM

Compound: COc1cccc(OC)c1-n1c(NS(=O)(=O)[C@H](C)[C@@H](C)c2ncc(Cl)cn2)nnc1-c1cccnc1 (racemic) [Example 694.0, (2R,3S)-3-(5-chloropyrimidin-2-yl)-N-(4-(2,6-dimethoxyphenyl)-5-(pyridin-3-yl)-4H-1,2,4-triazol-3-yl)butane-2-sulfonamide or (2S,3R)-3-(5-chloropyrimidin-2-yl)-N-(4-(2,6-dimethoxyphenyl)-5-(pyridin-3-yl)-4H-1,2,4-triazol-3-yl)butane-2-sulfonamide]
- MI Rat Model dP/dtmax (%) (heart failure rat model): 8%
- Isolated Heart Assay dP/dtmax (%) [1]: 18.0%
- Isolated Heart Assay dP/dtmin (%) [1]: 32.0%

Compound: COc1cccc(-c2nnc(NS(=O)(=O)[C@@H](C)[C@H](O)c3ccccc3OC)n2-c2c(OC)cccc2OC)n1 (single isomer, unassigned) [Example 324.0]
- EC50 (human APJ receptor; [3]): 14 nM

Compound: COc1cccc(-c2nnc(NS(=O)(=O)[C@@H](C)[C@H](O)c3ccccc3OC)n2-c2c(OC)cccc2OC)n1 (single isomer, unassigned) [Example 325.0]
- EC50 (human APJ receptor; [3]): 170 nM

Compound: COc1cccc(-c2nnc(NS(=O)(=O)[C@@H](C)[C@H](O)c3ccccc3OC)n2-c2c(OC)cccc2OC)n1 (single isomer, unassigned) [Example 326.0]
- EC50 (human APJ receptor; [3]): 22 nM

Compound: COc1cccc(-c2nnc(NS(=O)(=O)[C@@H](C)[C@H](O)c3ccccc3OC)n2-c2c(OC)cccc2OC)n1 (single isomer, unassigned) [Example 327.0]
- EC50 (human APJ receptor; [3]): 2 nM

Compound: COc1cccc(OC)c1-n1c(NS(=O)(=O)[C@H](C)[C@@H](OC)c2ncc(Cl)cn2)nnc1-c1cncc(C)c1 (single isomer, unassigned) [Example 557.0]
- MI Rat Model dP/dtmax (%) (heart failure rat model): No effect
- Isolated Heart Assay dP/dtmax (%) [1]: 17.0%
- Isolated Heart Assay dP/dtmin (%) [1]: 20.0%

Compound: CCOc1cccc(OC)c1-n1c(NS(=O)(=O)[C@@H](C)[C@H](OC)c2ncc(C)cn2)nnc1-c1cccc(OC)n1 (single isomer, unassigned) [Example 665.0, (1R,2S,P)—N-(4-(2-ethoxy-6-methoxyphenyl)-5-(6-methoxy-2-pyridinyl)-4H-1,2,4-triazol-3-yl)-1-methoxy-1-(5-methyl-2-pyrimidinyl)-2-propanesulfonamide or (1R,2S,M)-N-(4-(2-ethoxy-6-methoxyphenyl)-5-(6-methoxy-2-pyridinyl)-4H-1,2,4-triazol-3-yl)-1-methoxy-1-(5-methyl-2-pyrimidinyl)-2-propanesulfonamide]
- EC50 (human APJ receptor; [3]): 3.9 nM

Compound: COc1cccc(OC)c1-n1c(NS(=O)(=O)[C@@H](C)[C@H](O)c2ncc(C)cn2)nnc1-c1cccc(C)n1 [Example 99.0, (1R,2S)-N-(4-(2,6-dimethoxyphenyl)-5-(6-methylpyridin-2-yl)-4H-1,2,4-triazol-3-yl)-1-hydroxy-1-(5-methylpyrimidin-2-yl)propane-2-sulfonamide]
- left ventricular dP/dtmax (load independent cardiac contractility) [2]: increases load independent cardiac contractility
- left ventricular dP/dtmin (load independent cardiac relaxation) [2]: increases load independent cardiac relaxation
- cardiac contractility as measured by dP/dt (heart failure rat model): increase in cardiac contractility

Compound: COc1cccc(OC)c1-n1c(NS(=O)(=O)[C@@H](C)[C@H](C)c2ncc(C)cn2)nnc1-c1cncc(C)c1 [Example 263.0, (2S,3R)—N-(4-(2,6-dimethoxyphenyl)-5-(5-methylpyridin-3-yl)-4H-1,2,4-triazol-3-yl)-3-(5-methylpyrimidin-2-yl)butane-2-sulfonamide]
- left ventricular dP/dtmax (load independent cardiac contractility) [2]: increases load independent cardiac contractility
- left ventricular dP/dtmin (load independent cardiac relaxation) [2]: increases load independent cardiac relaxation
- cardiac contractility as measured by dP/dt (heart failure rat model): increase in cardiac contractility

Compound: COc1cccc(OC)c1-n1c(NS(=O)(=O)[C@@H](C)[C@H](O)c2ncc(C)cn2)nnc1-c1cncc(C)c1 [Example 371.0, (1R,2S)—N-(4-(2,6-dimethoxyphenyl)-5-(5-methylpyridin-3-yl)-4H-1,2,4-triazol-3-yl)-1-hydroxy-1-(5-methylpyrimidin-2-yl)propane-2-sulfonamide]
- cardiac contractility as measured by dP/dt (heart failure rat model): increase in cardiac contractility

Compound: COc1cccc(OC)c1-n1c(NS(=O)(=O)[C@@H](C)[C@H](C)c2ncc(C)cn2)nnc1-c1cccnc1 [Example 586.0, (2S,3R)—N-(4-(2,6-dimethoxyphenyl)-5-(3-pyridinyl)-4H-1,2,4-triazol-3-yl)-3-(5-methyl-2-pyrimidinyl)-2-butanesulfonamide]
- cardiac contractility as measured by dP/dt (heart failure rat model): increase in cardiac contractility
